For experiment [1], the system named is Mycobacterium tuberculosis. The experiment in a line: Antimycobacterial activity against Mycobacterium tuberculosis H37Rv ATCC 27294 by alamar blue broth microdilution assay. The class given is functional. On the technique in general: Resazurin is reduced to fluorescent resorufin, in cell work by metabolically active cells.
Experiment [2] relates to Vero. The experiment in a line: Cytotoxicity against african green monkey Vero cells after 72 hrs by MTT assay. The class given is cell-based. As to conditions: Chlorocebus sabaeus.

In brackets after ≈: the same amount, converted by molar mass.

In experiment [1], `CN1CC(c2ccccc2)C2(Cc3ccccc3C2=O)C12C(=O)c1ccccc1C2=O` (stereo unspecified) came in with an MIC90 of 6.22 µM (≈ 2.53 µg/mL). Besides, in experiment [2], the IC50 was more than 62.5 µg/mL.
For `CN1CC(c2cncc(-c3ccc(F)cc3)c2)C2(Cc3ccccc3C2=O)C12C(=O)c1ccccc1C2=O` (stereo unspecified), in that order: 0.121 µM (≈ 0.0611 µg/mL) and more than 62.5 µg/mL.
In the same order, the values of `CN1CC(c2ccc(Cl)cc2)C2(Cc3ccccc3C2=O)C12C(=O)c1ccccc1C2=O` (stereo unspecified) are 1.2 µM (≈ 0.528 µg/mL) and more than 62.5 µg/mL.
The molecule `CN1CC(c2ccc(Br)cc2)C2(Cc3ccccc3C2=O)C12C(=O)c1ccccc1C2=O` (stereo unspecified) came in with an MIC90 in experiment [1] of 1.37 µM (≈ 0.667 µg/mL). In addition, the IC50 in experiment [2] is more than 62.5 µg/mL.
In the same order, the values of `CN1CC(c2ccc(C(=O)O)cc2)C2(Cc3ccccc3C2=O)C12C(=O)c1ccccc1C2=O` (stereo unspecified) are 0.295 µM (≈ 0.133 µg/mL) and more than 62.5 µg/mL.
In experiment [1], `CN1CC(c2cccc([N+](=O)[O-])c2)C2(Cc3ccccc3C2=O)C12C(=O)c1ccccc1C2=O` (stereo unspecified) yielded an MIC90 of 0.81 µM (≈ 0.366 µg/mL). The molecule further returned an IC50 in experiment [2] of more than 62.5 µg/mL.
For `CN1CC(c2ccc(C(F)(F)F)cc2)C2(Cc3ccccc3C2=O)C12C(=O)c1ccccc1C2=O` (stereo unspecified), in that order: 0.638 µM (≈ 0.303 µg/mL) and more than 62.5 µg/mL.
For `CN1CC(c2ccc(OC(F)(F)F)cc2)C2(Cc3ccccc3C2=O)C12C(=O)c1ccccc1C2=O` (stereo unspecified), in that order: 0.214 µM (≈ 0.105 µg/mL) and more than 62.5 µg/mL.
On to `COc1ccc(C2CN(C)C3(C(=O)c4ccccc4C3=O)C23Cc2ccccc2C3=O)cc1` (stereo unspecified), for which the MIC90 in experiment [1] was more than 6.25 µM. The molecule further came in with a 50% inhibitory concentration (IC50) in experiment [2] of more than 62.5 µg/mL.
For `CN1CC(c2cccc3c2OCO3)C2(Cc3ccccc3C2=O)C12C(=O)c1ccccc1C2=O` (stereo unspecified), in that order: 2.42 µM (≈ 1.09 µg/mL) and more than 62.5 µg/mL.
In the same order, the values of `CN(C)c1ccc(C2CN(C)C3(C(=O)c4ccccc4C3=O)C23Cc2ccccc2C3=O)cc1` (stereo unspecified) are 3.32 µM (≈ 1.5 µg/mL) and more than 62.5 µg/mL.
In the same order, the values of `CN1CC(c2ccc(N3CCOCC3)cc2)C2(Cc3ccccc3C2=O)C12C(=O)c1ccccc1C2=O` (stereo unspecified) are 1.22 µM (≈ 0.598 µg/mL) and more than 62.5 µg/mL.
In turn, `NNC(=O)c1ccncc1` [ISONIAZID] showed an MIC90 in experiment [1] of 0.73 µM (≈ 0.1 µg/mL). The IC50 in experiment [2] is more than 62.5 µg/mL.

As usually defined, the MIC90 is the lowest concentration that inhibits either 90% of growth or 90% of the strains tested, depending on the study. By IC50 is commonly meant the midpoint of a concentration-inhibition curve.

The record behind these values is ChEMBL document CHEMBL2062378, “Antimycobacterial activity: a facile three-component [3+2]-cycloaddition for the regioselective synthesis of highly functionalised dispiropyrrolidines” (Bioorg Med Chem Lett, 2012).
